Experiments:
CVB3 = test: Promotion of CVB3 proliferation (virus titer) in WiDr cells; type: cell-based, coxsackievirus B3
CVA11 = test: Promotion of CVA11 proliferation (virus titer) in WiDr cells; type: cell-based, coxsackievirus A11; details: then CVA11 MOI 0.01, about 30 hours, t-test
AAV = test: Promotion of AAV proliferation (virus copy number, real-time PCR) in WiDr cells; type: cell-based
Protocol: pAAV-CMV Vector (manufactured by Takara Bio Co., Ltd.) was used as AAV. pAAV-CMV Vector was prepared using AAVpro (registered trademark) Helper Free System (manufactured by Takara Bio Co., Ltd.). The collected supernatant (virus solution) was stored at −80° C.
The cultured oxaliplatin-resistant colon cancer cell line (WiDr) was suspended in DMEM medium at […]. To each well of a 96-well plate, 100 μl of the obtained cell suspension was dispensed and the cells were seeded at 3×10^5 cells/well. […] Subsequently, the plate was allowed to stand for about 24 hours at 37° C., 5% CO2, and then AAV was added thereto at a MOI of 0.01. After the plate was allowed to stand for about 30 hours at 37° C., 5% CO2, virus copy numbers were measured using AAVpro (registered trademark) Titration Kit (for Real Time PCR) Ver.2 (manufactured by Takara Bio Co., Ltd.). The t-test was used as the test.

[1] = system: DAF (decay accelerating factor); test: Virus receptor expression by real-time PCR in WiDr cells, DAF; type: cell-based, human; details: oxaliplatin 50 μM about 42 hours, or CVA11 added about 20 hours after seeding, t-test
Protocol: (§1) The cultured oxaliplatin-resistant colon cancer cell line (WiDr) was suspended in DMEM medium at 3×10^6 cells/mL. To each well of a 96-well plate, 100 μl of the obtained cell suspension was dispensed and the cells were seeded at 3×10^5 cells/well. […] Thereafter, the plate was allowed to stand for about 42 hours at 37° C., 5% CO2, and then mRNA was collected to prepare cDNA. […] The expressions of DAF (decay accelerating factor) and ICAM-1 (intercellular adhesion molecule 1) were compared by real-time PCR. The t-test was used as the test.

[2] = Body weight change (adverse event) in WiDr-bearing nude mice; details: oxaliplatin 100 μg i.p. day 1; CVA11 5×10^7 PFU intratumoral days 2, 4, 6, 8, 10
Protocol: WiDr was washed with PBS and suspended in OPTI-MEM I at 5.0×10^7 cells/mL. 100 μl of the suspension containing WiDr was injected subcutaneously with a 27 G needle into the right flank of BALB/c nude mice of 6-8 weeks old. […] The tumor volume was calculated by major axis×minor axis×minor axis×0.5. The test was conducted using 5 mice in each group, and the t-test was used as the test.

[3] = system: ICAM-1 (intercellular adhesion molecule 1); test: Virus receptor expression by real-time PCR in WiDr cells, ICAM-1; type: cell-based, human; details: oxaliplatin 50 μM about 42 hours, or CVA11 added about 20 hours after seeding, t-test
Protocol: as §1

SMILES: N.N.[Cl][Pt][Cl] [cisplatin]
- CVB3 virus load (virus titer) (CVB3; cisplatin 0.5 or 1.0 μM, then CVB3 MOI 0.01): no increase in CVB3 virus load was observed

SMILES: O=c1[nH]cc(F)c(=O)[nH]1 [5-FU, 5-fluorouracil]
- CVA11 virus load (virus titer) (CVA11; 5-FU 50 μM): significant increase in CVA11 virus load

SMILES: O=C1[O][Pt]2([NH][C@@H]3CCCC[C@H]3[NH]2)[O]C1=O [oxaliplatin]
- copy number of AAV (AAV; oxaliplatin 0.25, 0.5, 1.0 or 2.5 μM, then AAV MOI 0.01, about 30 hours, t-test): significant, increase in the copy number of AAV
- copy number of AAV (AAV; oxaliplatin 0.25 to 1.0 μM, then AAV MOI 0.01): remarkable increase
- CVA11 virus load (virus titer) (CVA11; oxaliplatin 50 μM, vs CVA11 only): significant increase in CVA11 virus load
- CVB3 virus load (virus titer) (CVB3; oxaliplatin 1 μM, then CVB3 MOI 0.01, t-test): significant increase
- CVB3 virus load (virus titer) (CVB3; oxaliplatin 0.5 or 1.0 μM, then CVB3 MOI 0.01, about 30 hours): increase in CVB3 virus load was observed
- expression of DAF (real-time PCR) [1]: significantly increased
- body weight loss, compared with untreated group [2]: no significant weight loss was observed
- expression of ICAM-1 (real-time PCR) [3]: significantly increased

SMILES: CCc1c2c(nc3ccc(O)cc13)-c1cc3c(c(=O)n1C2)COC(=O)[C@]3(O)CC [SN-38, 7-ethyl-10-hydroxycamptothecin]
- CVA11 virus load (virus titer) (CVA11; SN-38 1.0, 5.0 or 50 μM): significant increase in CVA11 virus load
